Eight compounds from patent publication US20250340561A1, “QUINAZOLINE COMPOUND FOR INDUCING DEGRADATION OF G12D MUTANT KRAS PROTEIN” (Astellas Pharma Inc., priority 2021, published 2025) can be followed below.

Experiment [1] relates to human G12D mutant KRAS-positive pancreatic cancer line AsPC-1. Kind of experiment: Test Example 3: non-anchorage-dependent cell growth inhibition, spheroid 3D cell culture. It counts as cell-based. To be noted: AsPC-1 spheroid 3D culture, 6 days, CellTiter Glo 2.0. The method in brief: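 AsPC-1 cells were grown as spheroids (5×10^2 cells/well, low-adhesion round-bottom plates). Next day they were treated with compound at 6 final concentrations from 10 μM to 3.0 nM for 6 days at 37 °C, and viability was read by CellTiter Glo luminescence. IC50 came from Sigmoid-Emax nonlinear regression, normalized between DMSO-treated and cell-free wells.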
In general terms: ATP-based viability assays read luminescence as a measure of living cells.

Experiment [2] has as its system phosphorylation of ERK (Thr202/Tyr204). Put plainly: Test Example 2: ERK phosphorylation inhibition action in AsPC-1, Cell ELISA. The experiment is classed as cell-based, human. To be noted: AsPC-1 cells, 0% = 1 μM trametinib. The method in brief: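 AsPC-1 cells (KRAS G12D) treated 24 h with compound (6 points, 10 μM to 3.0 nM final) in RPMI 1640/10% FBS. Fixed with glyoxal; pERK Thr202/Tyr204 detected by In-Cell ELISA with 800 nm fluorescence. IC50 by Sigmoid-Emax regression, with DMSO set to 100% and 1 μM trametinib to 0%.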
(In general: In an ELISA, binding on a coated surface is turned into a signal by an enzyme label.)

Structures are written as SMILES. pIC50: −log10 of the molar value. Like-named read-outs stand apart in the source and are kept apart here.

What is called pIC50 is the IC50 on a negative log10 scale, so that one unit is a factor of ten. `CO[C@H](C)[C@@H](C)Oc1nc(N2C[C@@H]3C[C@H]2CN3)c2cc(C3CC3)c(-c3c(C)c(F)cc4[nH]ncc34)c(OCc3ccc(-c4cn([C@H](C(=O)N5C[C@H](O)C[C@H]5C(=O)N[C@@H](CO)c5ccc(-c6scnc6C)cc5)C(C)C)nn4)cc3)c2n1` [Example 39]: the pIC50 was 7.74 in experiment [1] (Homo sapiens, ASPC1, 144 h) and 8.22 in experiment [2] (Homo sapiens, ASPC1, 24 h).
For `Cc1c(F)cc2[nH]ncc2c1-c1c(C2CC2)cc2c(N3C[C@@H]4C[C@H]3CN4)nc(OC3CCOCC3)nc2c1OCc1ccc(-c2cn([C@H](C(=O)N3C[C@H](O)C[C@H]3C(=O)N[C@@H](CO)c3cccc(F)c3)C(C)C)nn2)cc1` [Example 63] the same measures were 6.88 and 7.14.
Consider `Cc1ncsc1-c1ccc([C@H](CO)NC(=O)[C@@H]2C[C@@H](O)CN2C(=O)[C@H](C(C)C)n2cc(-c3ccc(COc4c(-c5c(C)c(F)cc6[nH]ncc56)c(C5CC5)cc5c(N6C[C@@H]7C[C@H]6CN7)nc(OC[C@H]6CCOC6)nc45)cc3)nn2)cc1` [Example 52], for which the pIC50 in experiment [1] is 7.51; in experiment [2] (24 hours), 7.96.
For `CO[C@@H](C)COc1nc(N2C[C@@H]3C[C@H]2CN3)c2cc(C3CC3)c(-c3c(C)c(F)cc4[nH]ncc34)c(OCc3ccc(-c4cn([C@H](C(=O)N5C[C@H](O)C[C@H]5C(=O)N[C@@H](CO)c5ccc(-c6scnc6C)cc5)C(C)C)nn4)cc3)c2n1` [Example 48], the negative-log IC50 (pIC50) is 7.70 in experiment [1] (Homo sapiens, ASPC1, 144 h) and 8.10 in experiment [2] (Homo sapiens, ASPC1, 24 h).
For the compound `Cc1ncsc1-c1ccc([C@H](CO)NC(=O)[C@@H]2C[C@@H](O)CN2C(=O)[C@H](C(C)C)n2cc(-c3ccc(COc4c(-c5c(C)c(F)cc6[nH]ncc56)c(C5CC5)cc5c(N6C[C@@H]7C[C@H]6CN7)nc(OCC67CCCN6CCC7)nc45)cc3)nn2)cc1` [Example 44], the pIC50 in experiment [1] (Homo sapiens, ASPC1, 144 h) was 6.58; in experiment [2] (Homo sapiens, ASPC1, 24 h), 7.02.
Consider `Cc1ncsc1-c1ccc([C@H](CO)NC(=O)[C@@H]2C[C@@H](O)CN2C(=O)[C@H](C(C)C)n2cc(-c3ccc(COc4c(-c5c(C)c(F)cc6[nH]ncc56)c(C5CC5)cc5c(N6C[C@@H]7C[C@H]6CN7)nc(NCCO)nc45)cc3)nn2)cc1` [Example 66], for which the pIC50 was 6.44 in experiment [1] (Homo sapiens, ASPC1, 144 h, read-out: IC50) and 6.94 in experiment [2] (Homo sapiens, ASPC1, 24 h, read-out: IC50).
As for `COCC1(COc2nc(N3C[C@@H]4C[C@H]3CN4)c3cc(C4CC4)c(-c4c(C)c(F)cc5[nH]ncc45)c(OCc4ccc(-c5cn([C@H](C(=O)N6C[C@H](O)C[C@H]6C(=O)N[C@@H](CO)c6ccc(-c7scnc7C)cc6)C(C)C)nn5)cc4)c3n2)CC1` [Example 62], the negative-log IC50 (pIC50) in experiment [1] (Homo sapiens, ASPC1, 144 h) is 7.47; in experiment [2] (Homo sapiens, ASPC1, 24 h) it was 7.82.
For `CCOc1nc(N2C[C@@H]3C[C@H]2CN3)c2cc(C3CC3)c(-c3c(C)c(F)cc4[nH]ncc34)c(OCc3ccc(C(=O)N[C@H](C(=O)N4C[C@H](O)C[C@H]4C(=O)N[C@@H](CO)c4ccc(-c5scnc5C)cc4)C(C)C)cc3)c2n1` [Example 5] the same measures were 6.77 and 7.01.
